Measured values from paper PMC3961306, “Comparison of the Cancer Gene Targeting and Biochemical Selectivities of All Targeted Kinase Inhibitors Approved for Clinical Use” (PLoS ONE, 2014).

Experiments:
Assay in all cases: Kinase profiling in a biochemical assay panel (mobility shift assays and ELISA), %-inhibition at 1 μM; selectivity entropy
[1] = molecular target: panel of more than 300 wild-type and mutant kinases (313 kinase panel) (Homo sapiens, UniProt P49674)
[2] = molecular target: panel of more than 300 wild-type and mutant kinases (313 kinase panel) (Homo sapiens, UniProt O75582)
[3] = molecular target: panel of more than 300 wild-type and mutant kinases (313 kinase panel) (Homo sapiens, UniProt Q9UM73, F1174L)
[4] = molecular target: panel of more than 300 wild-type and mutant kinases (313 kinase panel) (Homo sapiens, UniProt P16234)
[5] = molecular target: panel of more than 300 wild-type and mutant kinases (313 kinase panel) (Homo sapiens, UniProt P07949, G691S)
[6] = molecular target: T1, panel of more than 300 wild-type and mutant kinases (313 kinase panel) (Homo sapiens, UniProt Q15139)
T1 sequence (Q15139 1-912): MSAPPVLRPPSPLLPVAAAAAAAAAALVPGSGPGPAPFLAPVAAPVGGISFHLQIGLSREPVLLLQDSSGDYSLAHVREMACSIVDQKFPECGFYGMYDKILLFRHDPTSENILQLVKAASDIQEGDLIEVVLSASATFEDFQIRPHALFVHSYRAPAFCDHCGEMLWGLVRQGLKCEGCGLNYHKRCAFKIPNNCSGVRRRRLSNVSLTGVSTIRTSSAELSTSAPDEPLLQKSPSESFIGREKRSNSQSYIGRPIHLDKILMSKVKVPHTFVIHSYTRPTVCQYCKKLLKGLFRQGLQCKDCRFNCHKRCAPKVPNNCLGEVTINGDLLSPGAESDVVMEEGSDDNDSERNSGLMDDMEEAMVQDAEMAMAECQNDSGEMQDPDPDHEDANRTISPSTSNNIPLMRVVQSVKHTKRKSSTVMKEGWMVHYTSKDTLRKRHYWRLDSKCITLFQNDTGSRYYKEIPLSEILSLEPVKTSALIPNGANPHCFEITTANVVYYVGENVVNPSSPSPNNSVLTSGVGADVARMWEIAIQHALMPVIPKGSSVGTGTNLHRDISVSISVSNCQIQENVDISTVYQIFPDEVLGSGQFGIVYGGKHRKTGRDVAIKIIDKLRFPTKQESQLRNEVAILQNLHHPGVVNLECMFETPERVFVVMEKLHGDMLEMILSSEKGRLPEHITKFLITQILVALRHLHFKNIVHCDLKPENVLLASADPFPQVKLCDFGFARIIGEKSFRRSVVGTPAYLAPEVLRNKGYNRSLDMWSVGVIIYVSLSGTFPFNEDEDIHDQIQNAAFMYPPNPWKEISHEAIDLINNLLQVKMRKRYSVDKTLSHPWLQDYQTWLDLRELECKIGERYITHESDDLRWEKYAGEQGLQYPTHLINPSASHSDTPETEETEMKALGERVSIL

[7] = molecular target: panel of more than 300 wild-type and mutant kinases (313 kinase panel) (Homo sapiens, UniProt P51451)
[8] = molecular target: panel of more than 300 wild-type and mutant kinases (313 kinase panel) (Homo sapiens, UniProt O75676)
[9] = molecular target: T2, panel of more than 300 wild-type and mutant kinases (313 kinase panel) (Homo sapiens, UniProt O94806)
T2 sequence (O94806 1-890): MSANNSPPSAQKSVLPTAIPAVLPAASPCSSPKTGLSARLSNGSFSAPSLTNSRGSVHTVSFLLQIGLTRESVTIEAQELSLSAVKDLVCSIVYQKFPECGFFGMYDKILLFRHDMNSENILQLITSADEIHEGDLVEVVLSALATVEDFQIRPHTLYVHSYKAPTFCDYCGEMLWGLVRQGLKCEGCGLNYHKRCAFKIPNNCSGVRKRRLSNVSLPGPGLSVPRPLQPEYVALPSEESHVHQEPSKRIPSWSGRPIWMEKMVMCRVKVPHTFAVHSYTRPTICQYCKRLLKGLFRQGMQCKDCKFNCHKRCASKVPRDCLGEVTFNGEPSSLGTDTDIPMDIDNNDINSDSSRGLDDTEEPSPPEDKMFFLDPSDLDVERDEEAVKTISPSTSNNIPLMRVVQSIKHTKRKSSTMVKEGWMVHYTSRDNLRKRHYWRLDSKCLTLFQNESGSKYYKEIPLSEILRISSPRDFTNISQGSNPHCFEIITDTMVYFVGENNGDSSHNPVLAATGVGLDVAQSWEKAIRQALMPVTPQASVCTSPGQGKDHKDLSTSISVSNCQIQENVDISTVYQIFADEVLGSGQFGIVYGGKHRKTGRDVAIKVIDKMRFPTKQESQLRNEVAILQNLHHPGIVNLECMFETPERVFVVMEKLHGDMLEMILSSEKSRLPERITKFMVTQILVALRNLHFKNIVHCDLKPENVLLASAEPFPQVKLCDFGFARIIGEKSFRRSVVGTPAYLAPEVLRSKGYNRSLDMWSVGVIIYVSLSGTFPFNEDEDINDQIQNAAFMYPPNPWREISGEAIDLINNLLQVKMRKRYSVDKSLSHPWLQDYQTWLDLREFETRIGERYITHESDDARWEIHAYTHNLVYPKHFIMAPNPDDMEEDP

[10] = kinase ALK(F1174L), 1 μM compound

| SMILES | %-inhibition, CK1ε ([1]; kinase CK1ε, 1 μM compound) [%] | %-inhibition of MSK1 ([2]; kinase MSK1, 1 μM) [%] | %-inhibition, ALK(F1174L) [3, 10] [%] | %-inhibition of PDGFRα ([4]; kinase PDGFRα, 1 μM) [%] | %-inhibition of RET(G691S) ([5]; kinase RET(G691S), 1 μM) [%] | %-inhibition of PKD1 ([6]; kinase PKD1, 1 μM) [%] | %-inhibition, BLK ([7]; kinase BLK, 1 μM compound) [%] | %-inhibition of MSK2 ([8]; kinase MSK2, 1 μM) [%] | %-inhibition of PKD3 ([9]; kinase PKD3, 1 μM) [%] | %-inhibition, CK1ε ([1]; 1 µM) [%] | %-inhibition of MSK1 ([2]; 1 µM) [%] | %-inhibition, ALK(F1174L) ([3]; 1 µM) [%] | %-inhibition of PDGFRα ([4]; 1 µM) [%] | %-inhibition of RET(G691S) ([5]; 1 µM) [%] | %-inhibition of PKD1 ([6]; 1 µM) [%] | %-inhibition, BLK ([7]; 1 µM) [%] | %-inhibition of MSK2 ([8]; 1 µM) [%] | %-inhibition of PKD3 ([9]; 1 µM) [%] |
| --- | --- | --- | --- | --- | --- | --- | --- | --- | --- | --- | --- | --- | --- | --- | --- | --- | --- | --- |
| O=S(=O)(c1cccc2cnccc12)N1CCCNCC1 [fasudil] | -4.62 | 37 | -4 | 16 | -0.0546 | 64 | -2.48 | 15 | 37 | – | – | – | – | – | – | – | – | – |
| C#Cc1cccc(Nc2ncnc3cc(OCCOC)c(OCCOC)cc23)c1 [erlotinib] | – | – | – | – | – | – | – | – | – | -2.38 | 9 | 41 | 52 | 73 | 13 | 31 | 5 | 8 |
| Cc1cn(-c2cc(NC(=O)c3ccc(C)c(Nc4nccc(-c5cccnc5)n4)c3)cc(C(F)(F)F)c2)cn1 [nilotinib] | 0.595 | 2.48 | -45 | – | – | – | 29 | 2.55 | 2 | – | – | – | 103 | 13 | -6 | – | – | – |
| CC(=O)Nc1cccc(-n2c(=O)n(C3CC3)c(=O)c3c(Nc4ccc(I)cc4F)n(C)c(=O)c(C)c32)c1 [trametinib] | -5.38 | -0.531 | -7 | 4.53 | -1.48 | 9 | -2.79 | -4.75 | 2.48 | – | – | – | – | – | – | – | – | – |
